{"source": "paper PMC5751233", "about": "“Characterization of the Asiatic Acid Glucosyltransferase, UGT73AH1, Involved in Asiaticoside Biosynthesis in Centella asiatica (L.) Urban” (International Journal of Molecular Sciences, 2017)", "target": "T1, UGT73AH1 (Centella asiatica, UniProt A0A2I7M6C4)", "T1 construct": "full-length ORF with stop codon, untagged, 501 residues; expressed in E. coli BL21 (DE3), soluble total protein extract", "T1 sequence (A0A2I7M6C4 1-501)": "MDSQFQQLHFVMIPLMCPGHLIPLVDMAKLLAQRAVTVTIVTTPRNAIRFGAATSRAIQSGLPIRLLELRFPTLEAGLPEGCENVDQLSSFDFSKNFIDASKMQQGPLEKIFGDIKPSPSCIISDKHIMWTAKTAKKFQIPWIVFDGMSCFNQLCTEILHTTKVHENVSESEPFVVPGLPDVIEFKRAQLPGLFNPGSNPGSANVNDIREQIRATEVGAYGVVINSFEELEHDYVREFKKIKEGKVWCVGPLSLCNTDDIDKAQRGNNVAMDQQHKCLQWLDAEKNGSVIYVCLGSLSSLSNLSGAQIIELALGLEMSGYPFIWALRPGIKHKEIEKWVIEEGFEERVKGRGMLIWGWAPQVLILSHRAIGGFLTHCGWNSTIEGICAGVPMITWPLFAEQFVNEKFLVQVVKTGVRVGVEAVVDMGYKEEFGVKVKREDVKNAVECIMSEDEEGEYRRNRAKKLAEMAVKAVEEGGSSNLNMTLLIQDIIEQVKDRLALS", "experiment": "UPLC-QTOF/MS detection of monoglucoside product", "format": "biochemical", "conditions": "5 mM UDP-glucose, 0.5 mM asiatic acid, 50 mM Tris-HCl pH 8.5, 35 °C, 4 h; E. coli total protein extract; boiled-protein control"}
{"smiles": "C[C@H]1[C@H](C)CC[C@]2(C(=O)O)CC[C@]3(C)C(=CC[C@@H]4[C@@]5(C)C[C@@H](O)[C@H](O)[C@@](C)(CO)[C@@H]5CC[C@]43C)[C@H]12", "note": "[asiatic acid]", "values": [{"measurement": "UPLC-QTOF/MS detection of monoglucoside product", "value": "our results show that UGT73AH1 catalyzes the glycosylation of asiatic acid"}]}
